These results are taken from US20240150321A1, “PYRAZOLYLSULFONAMIDE COMPOUNDS AND THEIR USE IN THERAPY” (HOTSPOT THERAPEUTICS, INC., priority 2022, published 2024).

Like-named read-outs stand apart in the source and are kept apart here. A value given as a limit tells only on which side of the number the result lay.

One experiment concerns the target Avi-tagged FL MALT-1 (Homo sapiens (Human), UniProt Q9UDY8). The experiment in a line: MALT-1 Fluorogenic Peptide Cleavage Assay (MALT1 inhibition assay). Format: biochemical. The settings on record: Ac-LRSR-AMC peptide substrate, 30 min pre-incubation, 90 min reaction at room temperature. A digest of the protocol: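 Full-length Avi-tagged human MALT-1 (40 nM working stock) pre-incubated 30 min at RT with compound in 25 mM HEPES pH 6.89, 660 mM sodium citrate, 1 mM TCEP, […], 0.05% CHAPS, 2% DMSO. Ac-LRSR-AMC added at Km (50 μM working stock) or 10×Km (280 μM working stock); 90 min at RT, AMC fluorescence (ex 342/em 441 nm), IC50 from % inhibition curves.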

Experiment [1] has as its system NF-kB reporter in Jurkat cells. The experiment in a line: NF-kB reporter assay in Jurkat cells stimulated with aCD3/aCD28/PMA. The format is cell-based. Conditions: Homo sapiens, read-out: NF-kB Reporter Assay IC50. Put shortly:
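Jurkat cells (25,000/well, serum-free RPMI) were pre-incubated 1 h at 37° C with serially diluted compound, then stimulated 4 h with aCD3/aCD28/PMA at final […]. NF-kB reporter activity was read by One-Glo luminescence; IC50 values reported.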

[2] abbreviates: Jurkat cells, 1 hr compound pre-incubation, aCD3/aCD28/PMA stimulation 4 hr, One-Glo readout.

Avi-tagged FL MALT-1, sequence (Q9UDY8 whole entry): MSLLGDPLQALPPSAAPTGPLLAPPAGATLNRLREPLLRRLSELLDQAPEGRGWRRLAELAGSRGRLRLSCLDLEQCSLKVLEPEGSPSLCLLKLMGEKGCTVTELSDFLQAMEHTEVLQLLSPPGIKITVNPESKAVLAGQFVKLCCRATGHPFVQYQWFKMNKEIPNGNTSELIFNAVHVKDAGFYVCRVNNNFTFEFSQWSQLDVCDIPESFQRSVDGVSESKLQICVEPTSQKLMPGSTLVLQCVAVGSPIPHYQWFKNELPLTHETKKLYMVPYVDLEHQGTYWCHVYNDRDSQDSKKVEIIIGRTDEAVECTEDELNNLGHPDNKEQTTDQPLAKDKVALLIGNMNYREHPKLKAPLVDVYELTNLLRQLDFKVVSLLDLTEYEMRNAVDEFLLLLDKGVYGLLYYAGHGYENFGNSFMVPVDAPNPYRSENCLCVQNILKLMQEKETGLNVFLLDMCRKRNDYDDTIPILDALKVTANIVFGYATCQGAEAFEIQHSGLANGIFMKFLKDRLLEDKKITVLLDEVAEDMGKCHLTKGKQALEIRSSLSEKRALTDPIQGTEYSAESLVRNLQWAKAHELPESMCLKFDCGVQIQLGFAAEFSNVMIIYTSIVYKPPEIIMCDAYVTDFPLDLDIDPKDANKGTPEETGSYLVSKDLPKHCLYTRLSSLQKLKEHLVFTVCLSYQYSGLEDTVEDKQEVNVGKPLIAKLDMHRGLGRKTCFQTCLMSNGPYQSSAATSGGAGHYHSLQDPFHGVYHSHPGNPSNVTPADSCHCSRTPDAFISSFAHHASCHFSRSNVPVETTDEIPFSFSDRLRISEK

For orientation: IC50 means the point on the concentration scale where inhibition reaches its midpoint. For the compound `C[C@@H]1CN(C)C(=O)N1c1ccnc(-n2cc(S(=O)(=O)Nc3cccc4cnn(C)c34)cn2)c1` [Compound I-348], the IC50 on Avi-tagged FL MALT-1 is over 2500 nM; in experiment [1] (setting [2]), under 400 nM.
With `C[C@H]1CN(C)C(=O)N1c1ccnc(-n2cc(S(=O)(=O)Nc3cccc4cnn(C)c34)cn2)c1` [Compound I-349], the results for the IC50 (against Avi-tagged FL MALT-1; in experiment [1] (setting [2])) were over 2500 nM and under 400 nM, respectively.
With `CN1C[C@H](n2cc(S(=O)(=O)Nc3cccc4cnn(C)c34)cn2)CCC1=O` [Compound I-350], the 50% inhibitory concentration (IC50) (against Avi-tagged FL MALT-1; in experiment [1] (setting [2])) was over 2500 nM throughout.
On to `CN1C[C@@H](n2cc(S(=O)(=O)Nc3cccc4cnn(C)c34)cn2)CCC1=O` [Compound I-351], for which the IC50 (against Avi-tagged FL MALT-1; in experiment [1] (setting [2])) was over 2500 nM throughout.
Turning to `[2H]C([2H])([2H])n1ncc2cnc(OC)c(NS(=O)(=O)c3cnn(-c4cc(C(F)(F)F)ccn4)c3)c21` [Compound I-352, N-(6-methoxy-1-(methyl-d3)-1H-pyrazolo[4,3-c]pyridin-7-yl)-1-(4-(trifluoromethyl)pyridin-2-yl)-1H-pyrazole-4-sulfonamide], the IC50 at Avi-tagged FL MALT-1 is at most 400 nM; in experiment [1] (setting [2]), under 400 nM.
For the compound `[2H]c1nn(C([2H])([2H])[2H])c2c(NS(=O)(=O)c3cnn(-c4cc(C(F)(F)F)ccn4)c3)cccc12` [Compound I-353, N-(1-(methyl-d3)-1H-indazol-7-yl-3-d)-1-(4-(trifluoromethyl)pyridin-2-yl)-1H-pyrazole-4-sulfonamide], the values for the concentration for half-maximal inhibition (IC50) (at Avi-tagged FL MALT-1; in experiment [1] (setting [2])) were at most 400 nM and under 400 nM, respectively.
For `[2H]C([2H])([2H])n1ncc2cnc(OC)c(N(C)S(=O)(=O)c3cnn(-c4cc(C(F)(F)F)ccn4)c3)c21` [Compound I-354, N-(6-methoxy-1-(methyl-d3)-1H-pyrazolo[4,3-c]pyridin-7-yl)-N-methyl-1-(4-(trifluoromethyl)pyridin-2-yl)-1H-pyrazole-4-sulfonamide], the half-inhibitory concentration (IC50) on Avi-tagged FL MALT-1 is at most 400 nM; in experiment [1] (setting [2]), under 400 nM.
As to `O=S(=O)(c1cnn(-c2cc(C(F)(F)F)ccn2)c1)N1CCn2ncc3cccc1c32` [Compound I-355, 1-((1-(4-(trifluoromethyl)pyridin-2-yl)-1H-pyrazol-4-yl)sulfonyl)-2,3-dihydro-1H-pyrazolo[1,5,4-de]quinoxaline], the 50% inhibitory concentration (IC50) (against Avi-tagged FL MALT-1; in experiment [1] (Jurkat)) was over 2500 nM each time.
As to `CC1CN(c2ccnc(-n3cc(S(=O)(=O)Nc4cccc5cnn(C)c45)cn3)c2)C1` [Compound I-356, N-(1-methyl-1H-indazol-7-yl)-1-(4-(3-methylazetidin-1-yl)pyridin-2-yl)-1H-pyrazole-4-sulfonamide], the IC50 was over 2500 nM against Avi-tagged FL MALT-1 and under 400 nM in experiment [1] (setting [2]).
On the same counts, the results for `C=Cn1cc2cccc(NS(=O)(=O)c3cnn(-c4cc(C(F)(F)F)ccn4)c3)c2n1` [Compound I-357, 1-(4-(trifluoromethyl)pyridin-2-yl)-N-(2-vinyl-2H-indazol-7-yl)-1H-pyrazole-4-sulfonamide] are over 2500 nM and over 2500 nM.
On the same counts, the results for `Cn1ncc2cccc(NS(=O)(=O)c3cnn(-c4cc(C5(O)CC(F)C5)ccn4)c3)c21` (centres unmarked) [Compound I-358] are over 2500 nM and under 400 nM.
With `Cn1ncc2cccc(NS(=O)(=O)c3cnn(-c4cc(C5(O)CC(F)(F)C5)ccn4)c3)c21` [Compound I-359], the 50% inhibitory concentration (IC50) at Avi-tagged FL MALT-1 is over 2500 nM; in experiment [1] (setting [2]) it was under 400 nM.
Turning to `COC1(c2ccnc(-n3cc(S(=O)(=O)Nc4cccc5cnn(C)c45)cn3)c2)CC(C)C1` (centres unmarked) [Compound I-362, 1-(4-(1-methoxy-3-methylcyclobutyl)pyridin-2-yl)-N-(1-methyl-1H-indazol-7-yl)-1H-pyrazole-4-sulfonamide], the IC50 was over 2500 nM against Avi-tagged FL MALT-1 and under 400 nM in experiment [1] (setting [2]).
